Article PMC7318222, “A Family of Water‐Immiscible, Dipolar Aprotic, Diamide Solvents from Succinic Acid” (Chemsuschem, 2020)
Entries after “also recorded” stand apart in the source; their conditions may differ.

How the values were obtained:
PPARγ = molecular target: T1, PPARγ (Homo sapiens, UniProt P37231); test: PPARγ CALUX reporter gene assay; format: cell-based; parameters: key: –: no effect observed up to the highest test concentration; conditions: PC10, 24 h exposure
T1 construct: expression construct for the full-length human receptor under investigation; expressed in transfected cells; host or cells: human U2-OS cells (ATCC HTB-96), stably transfected
T1 sequence (P37231 1-505): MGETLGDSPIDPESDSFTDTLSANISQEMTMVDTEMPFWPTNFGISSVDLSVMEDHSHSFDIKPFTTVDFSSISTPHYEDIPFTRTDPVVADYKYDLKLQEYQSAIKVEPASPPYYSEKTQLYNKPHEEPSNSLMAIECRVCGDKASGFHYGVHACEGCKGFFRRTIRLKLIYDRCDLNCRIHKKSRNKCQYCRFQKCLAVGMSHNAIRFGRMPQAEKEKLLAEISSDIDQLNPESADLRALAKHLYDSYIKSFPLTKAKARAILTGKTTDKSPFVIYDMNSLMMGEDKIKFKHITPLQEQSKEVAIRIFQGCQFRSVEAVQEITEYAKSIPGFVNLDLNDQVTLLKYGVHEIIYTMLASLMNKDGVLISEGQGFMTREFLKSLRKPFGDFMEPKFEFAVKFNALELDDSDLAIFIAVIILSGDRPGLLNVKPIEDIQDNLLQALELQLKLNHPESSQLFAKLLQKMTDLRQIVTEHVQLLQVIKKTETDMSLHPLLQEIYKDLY
From the text: 2-methylimidazole 99.0%, zinc(II) nitrate hexahydrate ≥99.0%, para-cymene 99.0%, 1,4-dioxane 99.8% (anhydrous), 4-nitroaniline ≥99.0%, 1-octanol ≥99.0%, diglyme ≥99.0%, DMSO-d6 (99.8% D) and chloroform-d (99.8% D) were purchased from Sigma-Aldrich. Toluene ≥99.0%, hexane ≥99.5%, DCM ≥99.5%, chloroform ≥99.5%, DMSO ≥99.0% were purchased from VWR. N,N-diethyl-4-nitroaniline ≥98.0% was purchased from Alfa Aeser. Cyrene was supplied by Circa group. N-butylpyrrolidinone was supplied by Eastman chemicals. N,N-dimethylformamide 99.9% and N,N-dimethylacetamide 99.9% were purchased from Fischer. The flakes of Ultrason® E3020 P Polyarylethersulfone of 55,000 Da were obtained from INGE.BASF, Germany. The CALUX cell lines have been described previously.[1] They are based on human U2-OS cells (ATCC, HTB-96) stably transfected with an expression construct for the full-length human receptor under investigation, and a reporter construct consisting of multimerized responsive elements for the cognate receptor coupled to a minimal promoter element (TATA) and a luciferase gene. Cells were maintained as described previously,[2] using cell culture media and supplements from Fisher Scientific as described in the experimental procedures section. […]
(§1) In vitro reporter gene assays
(§2) The automated CALUX assays were carried out similarly as described earlier,[12] with some adaptations. In brief, the assay was performed in CO2 independent medium (Fisher Scientific, […]
(§3) supplement (Fisher Scientific, 11574466), 10 U/mL penicillin and 10 µg/mL streptomycin. A cell suspension in assay medium was made of 1 × 10^5cells/mL, and white 384-wells plates were seeded with 30 µl cell suspension/well. After 24 h, exposure medium was prepared. A dilution series in 0.5log unit increments of each test compound (in DMSO) was added to a 96-wells plate containing assay medium (2% v/v). Of this exposure mixture, 30 µl was added to the assay plates containing the CALUX cells, resulting in a final DMSO concentration of 1%. Additionally, DMSO blanks and a full dose response curve of the relevant reference compound were included on each plate. All samples were tested in triplicate. The preparation of the compound dilution series as well as the exposure of the cells were performed on a Hamilton StarLET liquid handling robot coupled to a Cytomat incubator.
(§4) Directly after exposure, plates were sealed with non-breathing plate seals (Plate sealer, easy seal transparent; Greiner-Bio-One, 676001). After 24 h the exposure medium was removed using an EL406 washer-dispenser (BioTek) and 10 µl/well triton lysisbuffer was added by the EL406.
Subsequently, the luciferase signal was measured in a luminometer (InfinitePro coupled to a Connect Stacker, both TECAN). In order to be able to detect receptor antagonism, several assays were also performed in antagonistic mode. […]
The luminometer data was analysed as follows; the average of the triplicate wells was determined, and the average blank (DMSO) value was subtracted. […] For antagonist- and cytotoxicity experiments, PC20 values were determined instead, which was defined as the concentration where the test compound causes a 20% decrease in the basal signal, which was […]
(§5) curve, the signal induction above background (DMSO) was determined, and the concentration where the compound elicited a 1.5-fold increase above background was used as LEC.

p21 = p21 CALUX assay (DNA damage response); format: cell-based, human; parameters: key: –: no effect observed up to the highest test concentration; conditions: cell signaling pathway assay, 24 h exposure
From the text: Six of the CALUX assays (TCF through p53) detect activation of several cellular signaling pathways, which are indicative of general stress and acute toxicity, but also a range of more specific types of toxicity, including reproductive toxicity. […]
DCM ≥99.5%, chloroform ≥99.5%, DMSO ≥99.0% were purchased from VWR. […]
Polyarylethersulfone of 55,000 Da were obtained from INGE.BASF, Germany. The CALUX cell lines have been described previously.[1] They are based on human U2-OS cells (ATCC, HTB-96) stably transfected with an expression construct for the full-length human receptor under investigation, and a reporter construct consisting of multimerized responsive elements for the cognate receptor coupled to a minimal promoter element (TATA) and a luciferase gene. Cells were maintained as described previously,[2] using cell culture media and supplements from Fisher Scientific as described in the experimental procedures section. […]
as §1, §2, §3, §4
Subsequently, the luciferase signal was measured in a luminometer (InfinitePro coupled to a Connect Stacker, both TECAN). In order to be able to detect receptor antagonism, several assays were also performed in antagonistic mode. The assay procedure was as described above, with the only exception that the EC50 concentration of the reference agonist was present during the exposure.
The luminometer data was analysed as follows; the average of the triplicate wells was determined, and the average blank (DMSO) value was subtracted. For receptor-based assays the maximum response elicited by the reference compound was set to 100% (full receptor- or pathway activation), and the other values were scaled accordingly. GraphPad Prism was used to fit a sigmoidal curve through the data (four parameters, variable slope). […] For antagonist- and cytotoxicity experiments, PC20 values were determined instead, which was defined as the concentration where the test compound causes a 20% decrease in the basal signal, which was […]
as §5

Miscibility with hexane = format: physicochemical; conditions: this work

| Compound | LEC PPARγ (PPARγ) | Hexane misc. (Miscibility with hexane) | LEC p21 (p21) |
| --- | --- | --- | --- |
| CCCCN(CCCC)C(=O)CCC(=O)N(CCCC)CCCC [TBSA, N,N,N′,N′‐tetrabutylsuccindiamide] | – | yes^[a] | – |
| CN1CCCC1=O [NMP, N‐methyl‐2‐pyrrolidone, reference compound] | – | no^[a] | −2.0 Log M |

The next lines start with results.

| LEC PPARγ (PPARγ) | Hexane misc. (Miscibility with hexane) | Compound | LEC p21 (p21) |
| --- | --- | --- | --- |
| – | yes^[a] | CCCCN(CC)C(=O)CCC(=O)N(CC)CCCC [EBSA, N,N′‐diethyl‐N,N′‐dibutylsuccindiamide] | – |
| – | yes^[a] | CCCCN(C)C(=O)CCC(=O)N(C)CCCC [MBSA, N,N′‐dimethyl‐N,N′‐dibutylsuccindiamide] | – |
| – | miscible; also recorded: yes^[a] | CCCCN1CCCC1=O [NBP, N‐Butylpyrrolidinone, reference compound] | – |
